From patent publication US9914736B2, “TrKA kinase inhibitors, compositions and methods thereof” (Merck Sharp & Dohme Corp., priority 2014, dated 2018)

Target: human TrkA receptor (Homo sapiens (Human), UniProt P04629)
Test: DiscoverX PathHunter TrkA functional assay
Type: cell-based
Conditions: U2OS cells expressing human TrkA-ProLink, Shc1-EA and p75NTR; compound 1 h, then NGF at ~80% of maximal response for 3 h; luminescence

human TrkA receptor, sequence (P04629 33-796): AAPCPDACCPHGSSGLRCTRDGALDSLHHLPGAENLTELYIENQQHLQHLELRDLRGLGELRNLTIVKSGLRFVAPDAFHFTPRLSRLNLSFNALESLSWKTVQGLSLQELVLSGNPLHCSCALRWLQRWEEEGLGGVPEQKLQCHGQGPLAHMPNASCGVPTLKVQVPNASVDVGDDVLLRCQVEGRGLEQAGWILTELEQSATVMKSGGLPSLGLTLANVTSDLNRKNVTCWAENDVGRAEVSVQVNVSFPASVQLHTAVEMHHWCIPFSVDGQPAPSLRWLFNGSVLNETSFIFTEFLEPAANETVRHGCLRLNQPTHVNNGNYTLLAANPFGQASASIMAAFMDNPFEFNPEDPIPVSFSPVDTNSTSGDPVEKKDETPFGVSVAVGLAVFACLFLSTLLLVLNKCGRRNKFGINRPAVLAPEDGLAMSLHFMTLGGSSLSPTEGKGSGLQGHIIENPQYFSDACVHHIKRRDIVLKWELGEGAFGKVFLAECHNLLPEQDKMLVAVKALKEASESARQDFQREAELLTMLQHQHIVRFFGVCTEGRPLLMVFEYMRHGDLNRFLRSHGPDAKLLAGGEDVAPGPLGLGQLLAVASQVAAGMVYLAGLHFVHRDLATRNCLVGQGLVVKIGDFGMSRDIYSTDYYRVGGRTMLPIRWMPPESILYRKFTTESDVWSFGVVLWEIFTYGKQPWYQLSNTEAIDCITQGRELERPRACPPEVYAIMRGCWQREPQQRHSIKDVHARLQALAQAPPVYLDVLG

IC50 [nM]	Compound
1.9	Cn1ccc(-c2cc(C(=O)Nc3cc(CN4C(=O)CNC4=O)nn3-c3ccc(F)cc3)c(F)cc2C(F)(F)F)n1 [Compound 112, N-(3-((2,5-dioxoimidazolidin-1-yl)methyl)-1-(4-fluorophenyl)-1H-pyrazol-5-yl)-2-fluoro-5-(1-methyl-1H-pyrazol-3-yl)-4-(trifluoromethyl)benzamide]
9.7	Cn1ccc(-c2cc(C(=O)Nc3cc(-c4ccncc4)nn3-c3ccc(F)c(F)c3)ccc2C(F)(F)F)n1 [Compound 9, N-[1-(3,4-difluorophenyl)-3-pyridin-4-yl-1H-pyrazol-5-yl]-3-(1-methyl-1H-pyrazol-3-yl)-4-(trifluoromethyl)benzamide]
1400	Cn1ccc(-c2cc(C(=O)Nc3cc(-c4ccccc4)nn3C)ccc2C(F)(F)F)n1 [Compound 20, N-(1-methyl-3-phenyl-1H-pyrazol-5-yl)-3-(1-methyl-1H-pyrazol-3-yl)-4-(trifluoromethyl)benzamide]
1.3	Cn1ccc(-c2cc(C(=O)Nc3cc(Cc4nnc(N)o4)nn3-c3ccc(F)cc3)ccc2C(F)(F)F)n1 [Compound 92, N-(3-((5-amino-1,3,4-oxadiazol-2-yl)methyl)-1-(4-fluorophenyl)-1H-pyrazol-5-yl)-3-(1-methyl-1H-pyrazol-3-yl)-4-(trifluoromethyl)benzamide]
4.6	Cn1ccc(-c2cc(C(=O)Nc3c4c(nn3-c3ccccc3)CC(=O)NC4)c(F)cc2C(F)(F)F)n1 [Compound 108, 2-fluoro-5-(1-methyl-1H-pyrazol-3-yl)-N-(6-oxo-2-phenyl-4,5,6,7-tetrahydro-2H-pyrazolo[4,3-c]pyridin-3-yl)-4-(trifluoromethyl)benzamide]
11	Cn1ccc(-c2cc(C(=O)Nc3cn(C)nc3-c3ccccc3)ccc2C(F)(F)F)n1 [Compound 43, N-(1-methyl-3-phenyl-1H-pyrazol-4-yl)-3-(1-methyl-1H-pyrazol-3-yl)-4-(trifluoromethyl)benzamide]
490	Cc1cc(NC(=O)c2cc(-c3cc[nH]n3)ccc2Cl)n(-c2cc(C)[nH]n2)n1 [Compound 54, 2-chloro-N-(3,5′-dimethyl-1′H-1,3′-bipyrazol-5-yl)-5-(1H-pyrazol-3-yl)benzamide]
4.8	O=C(Nc1cc(Cc2n[nH]c(=O)s2)nn1-c1ccc(F)cc1)c1cc(-c2ncccn2)c(C(F)(F)F)cc1F [Compound 89, 2-fluoro-N-(1-(4-fluorophenyl)-3-((5-oxo-4,5-dihydro-1,3,4-thiadiazol-2-yl)methyl)-1H-pyrazol-5-yl)-5-(pyrimidin-2-yl)-4-(trifluoromethyl)benzamide]
530	Cc1nc(-c2cc(C(=O)Nc3cc(-c4ccncc4)nn3-c3ccc(F)cc3)ccc2C(F)(F)F)no1 [Compound 29, N-[1-(4-fluorophenyl)-3-pyridin-4-yl-1H-pyrazol-5-yl]-3-(5-methyl-1,2,4-oxadiazol-3-yl)-4-(trifluoromethyl)benzamide]
14	O=C(Nc1cc(C(=O)N2CCC2)nn1-c1ccc(F)cc1)c1cc(-c2ncccn2)c(C(F)(F)F)cc1F [Compound 88, N-(3-(azetidine-1-carbonyl)-1-(4-fluorophenyl)-1H-pyrazol-5-yl)-2-fluoro-5-(pyrimidin-2-yl)-4-(trifluoromethyl)benzamide]
1.6	Cc1cc(-n2nc(C(=O)NCc3cncnc3)cc2NC(=O)c2ccc(C(F)(F)F)c(-c3ccn(C)n3)c2)[nH]n1 [Compound 83, 5′-methyl-5-(3-(1-methyl-1H-pyrazol-3-yl)-4-(trifluoromethyl)benzamido)-N-(pyrimidin-5-ylmethyl)-2′H-[1,3′-bipyrazole]-3-carboxamide]
1.6	Cn1nnnc1Cc1cc(NC(=O)c2cc(-c3ncccn3)c(C(F)(F)F)cc2F)n(-c2ccc(F)cc2)n1 [Compound 104, 2-fluoro-N-(1-(4-fluorophenyl)-3-((1-methyl-1H-tetrazol-5-yl)methyl)-1H-pyrazol-5-yl)-5-(pyrimidin-2-yl)-4-(trifluoromethyl)benzamide]
6	Cc1nc(-c2ccccc2)c(NC(=O)c2ccc(C(F)(F)F)c(-c3ccn(C)n3)c2)s1 [Compound 32, N-(2-methyl-4-phenyl-1,3-thiazol-5-yl)-3-(1-methyl-1H-pyrazol-3-yl)-4-(trifluoromethyl)benzamide]
12	CC(O)c1ccc(-c2cc(NC(=O)c3cc(-c4ncccn4)c(C(F)(F)F)cc3F)n(-c3ccc(F)cc3)n2)nc1 (single isomer, unassigned) [Compound 100, (S or R)-2-fluoro-N-(1-(4-fluorophenyl)-3-(5-(1-hydroxyethyl)pyridin-2-yl)-1H-pyrazol-5-yl)-5-(pyrimidin-2-yl)-4-(trifluoromethyl)benzamide]
6.1	Cn1ccc(-c2cc(C(=O)Nc3cc(Cc4cnc(N)nc4)nn3-c3ccc(F)cc3)ccc2C(F)(F)F)n1 [Compound 91, N-(3-((2-aminopyrimidin-5-yl)methyl)-1-(4-fluorophenyl)-1H-pyrazol-5-yl)-3-(1-methyl-1H-pyrazol-3-yl)-4-(trifluoromethyl)benzamide]
89	Cn1ccc(-c2cc(C(=O)Nc3cc(-c4ccc(=O)[nH]n4)nn3-c3ccccc3)ccc2OC(F)(F)F)n1 [Compound 71, 3-(1-methyl-1H-pyrazol-3-yl)-N-[3-(6-oxo-1,6-dihydropyridazin-3-yl)-1-phenyl-1H-pyrazol-5-yl]-4-(trifluoromethoxy)benzamide]

IC50 [nM]	Compound
0.4	Cn1ccc(-c2cc(C(=O)Nc3cc(Cc4nnnn4C)nn3-c3ccc(F)cc3)c(F)cc2C(F)(F)F)n1 [Compound 102, 2-fluoro-N-(1-(4-fluorophenyl)-3-((1-methyl-1H-tetrazol-5-yl)methyl)-1H-pyrazol-5-yl)-5-(1-methyl-1H-pyrazol-3-yl)-4-(trifluoromethyl)benzamide]
5.4	Cc1csc(-c2cc(C(=O)Nc3cc(C)nn3-c3ccccc3)ccc2C(F)(F)F)n1 [Compound 3, N-(3-methyl-1-phenyl-1H-pyrazol-5-yl)-3-(4-methyl-1,3-thiazol-2-yl)-4-(trifluoromethyl)benzamide]
3.6	Cn1cc(Cc2cc(NC(=O)c3ccc(C(F)(F)F)c(-c4ccn(C)n4)c3)n(-c3ccc(F)cc3)n2)cn1 [Compound 90, N-(1-(4-fluorophenyl)-3-((1-methyl-1H-pyrazol-4-yl)methyl)-1H-pyrazol-5-yl)-3-(1-methyl-1H-pyrazol-3-yl)-4-(trifluoromethyl)benzamide]
2100	Cc1cc(-n2nc(-c3cnn(C)c3)cc2NC(=O)c2ccc(C(F)(F)F)c(-c3cccnc3)c2)n[nH]1 [Compound 8, N-(1″,5-dimethyl-1H,1″H-3,1′:3′,4″-terpyrazol-5′-yl)-3-pyridin-3-yl-4-(trifluoromethyl)benzamide]
670	Cc1c(Cl)cc(C(=O)Nc2cc(-c3ccncc3)nn2-c2ccccc2)cc1Cl [Compound 23, 3,5-dichloro-4-methyl-N-(1-phenyl-3-pyridin-4-yl-1H-pyrazol-5-yl)benzamide]
2.9	Cc1cc(-n2nc(CO)cc2NC(=O)c2ccc(C(F)(F)F)c(-c3ccn(C)n3)c2)[nH]n1 [Compound 51]
12	O=C(Nc1cc(CCO)nn1-c1ccc(F)cc1)c1cc(-c2ncccn2)c(C(F)(F)F)cc1F [Compound 93, 2-fluoro-N-(1-(4-fluorophenyl)-3-(2-hydroxyethyl)-1H-pyrazol-5-yl)-5-(pyrimidin-2-yl)-4-(trifluoromethyl)benzamide]
46	Cn1ccc(-c2cc(C(=O)Nc3cc(-c4n[nH]c(=O)n4C)nn3-c3ccccc3)ccc2C(F)(F)F)n1 [Compound 16, N-[3-(4-methyl-5-oxo-4,5-dihydro-1H-1,2,4-triazol-3-yl)-1-phenyl-1H-pyrazol-5-yl]-3-(1-methyl-1H-pyrazol-3-yl)-4-(trifluoromethyl)benzamide]
16	CC(O)c1cc(NC(=O)c2cc(-c3ncccn3)c(C(F)(F)F)cc2F)n(-c2ccc(F)cc2)n1 (single isomer, unassigned) [Compound 99, (S or R)-2-fluoro-N-(1-(4-fluorophenyl)-3-(1-hydroxyethyl)-1H-pyrazol-5-yl)-5-(pyrimidin-2-yl)-4-(trifluoromethyl)benzamide]
180	Cn1ccc(-c2cc(C(=O)Nc3cnoc3-c3ccccc3)ccc2C(F)(F)F)n1 [Compound 37, 3-(1-methyl-1H-pyrazol-3-yl)-N-(5-phenylisoxazol-4-yl)-4-(trifluoromethyl)benzamide]
7	CNC(=O)c1cc(NC(=O)c2cc(-c3ncccn3)c(C(F)(F)F)cc2F)n(-c2ccc(F)cc2)n1 [Compound 86, 5-(2-fluoro-5-(pyrimidin-2-yl)-4-(trifluoromethyl)benzamido)-1-(4-fluorophenyl)-N-methyl-1H-pyrazole-3-carboxamide]
8.4	Cc1nc(-c2ccccc2)c(NC(=O)c2cc(-c3ccn(C)n3)c(C(F)(F)F)cc2F)n1C [Compound 63, N-(1,2-dimethyl-4-phenyl-1H-imidazol-5-yl)-2-fluoro-5-(1-methyl-1H-pyrazol-3-yl)-4-(trifluoromethyl)benzamide]
10	Cc1cc(-n2nc(C(=O)NC3CN(C)C3)cc2NC(=O)c2ccc(C(F)(F)F)c(-c3ccn(C)n3)c2)[nH]n1 [Compound 27, 5′-methyl-N-(1-methylazetidin-3-yl)-5-({[3-(1-methyl-1H-pyrazol-3-yl)-4-(trifluoromethyl)phenyl]carbonyl}amino)-2′H-1,3′-bipyrazole-3-carboxamide]
7	NC(=O)OCc1cc(NC(=O)c2cc(-c3ncccn3)c(C(F)(F)F)cc2F)n(-c2ccc(F)cc2)n1 [Compound 110, (5-(2-fluoro-5-(pyrimidin-2-yl)-4-(trifluoromethyl)benzamido)-1-(4-fluorophenyl)-1H-pyrazol-3-yl)methyl carbamate]
3.1	Cc1coc(-c2cc(C(=O)Nc3cc(-c4cn[nH]c4)nn3-c3cc(C)[nH]n3)ccc2C(F)(F)F)n1 [Compound 61, 3-(4-methyl-1,3-oxazol-2-yl)-N-(5-methyl-1H,1″H-3,1′:3′,4″-terpyrazol-5′-yl)-4-(trifluoromethyl)benzamide]
